Common to all, as to experiment: relative viability (nuclei count vs DMSO), 5 days (fraction); higher = more cells survive
Compound in test [1]: C(C(=O)C(=O)O)Br [Bromopyruvate] + N=C(N)NC(=N)NCCc1ccccc1 [Phenformin] (partner 250 µM)
Summed up:
(§1)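 Medians of duplicate plates are given as relative viability. That measure is the nuclei count in treated wells divided by the count in vehicle wells. Counts were taken on 4× images of lung cancer cell lines in 1536-well plates, 5 days after pin-tool dosing the day after seeding with one drug alone or a fixed anchor-drug dose plus five library-drug doses (not always all listed) in √10 steps.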

Compound in test [2]: C(C(=O)C(=O)O)Br [Bromopyruvate] + CC(=O)c1c(C)c2cnc(Nc3ccc(N4CCNCC4)cn3)nc2n(C2CCCC2)c1=O [Palbociclib] (partner 0.5 µM)
The method in brief: as §1

Compound in test [3]: C(C(=O)C(=O)O)Br [Bromopyruvate] + Cc1nc(NC(=O)N2CCC[C@H]2C(N)=O)sc1-c1ccnc(C(C)(C)C(F)(F)F)c1 [Alpelisib] (partner 2 µM)
Summed up:
as §1

Compound in test [4]: C(C(=O)C(=O)O)Br [Bromopyruvate] + CCNC(=O)c1noc(-c2cc(C(C)C)c(O)cc2O)c1-c1ccc(CN2CCOCC2)cc1 [Luminespib] (partner 0.01 µM)
Summed up: as §1

The text below walks through data of the supplement of paper PMC10307832.

As to UMC-11, the relative viability was 0.343 in test [1] (first compound 1 µM); 0.328 in test [1] (first compound 3.162 µM); 0.314 in test [1] (first compound 10 µM); 0.329 in test [1] (first compound 31.62 µM); 0.292 in test [1] (first compound 100 µM); 0.343 in test [2] (first compound 1 µM). In addition, the relative viability in test [2] (first compound 3.162 µM) was 0.353; in test [2] (first compound 10 µM), 0.324; in test [2] (first compound 31.62 µM), 0.367; in test [2] (first compound 100 µM) it was 0.356; in test [3] (first compound 1 µM) it was 1.12; in test [3] (first compound 3.162 µM), 1.01. Also, the relative viability is 0.983 in test [3] (first compound 10 µM); 0.997 in test [3] (first compound 31.62 µM); 1.01 in test [3] (first compound 100 µM); 0.959 in test [4] (first compound 1 µM); 0.998 in test [4] (first compound 3.162 µM); 0.987 in test [4] (first compound 10 µM). Moreover, the results for the relative viability in test [4] (first compound 31.62 µM) and in test [4] (first compound 100 µM) were 1.05 and 1.06, respectively.
